Measured values taken from article PMC12973313 (Chemical Science, 2026).
Values after ≈ are worked out from the molar mass of the structure shown. Values joined by “and” are separate entries in the source; they are usually repeats but may differ in a detail not shown here. Equal values may be shown once. Read-outs that look alike come from different tables or passages of the source.

Tests used:
S. aureus ATCC 9144 = assay: MIC assay; type: cell-based, Staphylococcus aureus
Experimental: (§1) Next generation SSAs 3, 5, 7, and 9 were specifically designed to increase the activity of SSAs against both drug susceptible and resistant S. aureus and ovarian cancer cells. […] These strains include: (i) USA300, a common clinically relevant, methicillin resistant strain;[47] […]
(§2) Section S3: Biological methods […]
(§3) Preparation of bacterial plates : Sterile TSB agar plates were streaked using the desired […]
(§4) Preparation of inoculum: An initial culture was made up by inoculating TSB (5 mL) with 3 single colonies of the desired bacteria under sterile conditions and incubated at 37 °C overnight. The optical density at 600 nm (OD 600) was adjusted using sterile distilled H 2O (dH2O) to equal ~1 x 10^6 bacteria/mL.
(§5) Preparation of 96 -well microplate : A solution of each compound in H2O/5 % EtOH was made […]
(§6) The compound solution (200 […]
(§7) µL) was added to and diluted 50:50 down the plate. The bacterial suspension (100 µL) was dispensed into each well under sterile conditions. […]

S. aureus NCTC 13616 = assay: MIC assay; type: cell-based, Staphylococcus aureus
Experimental: as §1, §2, §3, §4, §5, §6, §7

[1] = Surface tension (pendant drop) / CAC determination, H2O 5% EtOH; type: physicochemical; details: for Surface tension (mN m^-1): H2O 5% EtOH, at limit of SSA solubility = 5.56 mM; for CAC: H2O/5 % EtOH, above the limit of solubility
Text: Here, the CAC is defined as the concentration at which any additional SSA added to a solution will result in the production of high-order self-associated species. […] To determine CAC, we used the pendant drop method to elucidate the surface tension of H2O 5% EtOH solutions of 1, 3, 5, 7, 9, and 1 : 1 SSA enantiomeric mixtures at 291 K (Table 2).

[2] = 1H NMR DOSY, DMSO-d6 0.5% H2O; type: physicochemical; details: 298 K; for dH (nm), hydrodynamic diameter, anionic component: 1H NMR DOSY, DMSO-d6 0.5% H2O, 112 mM; for Hydrodynamic diameter (nm) Cationic component: DMSO-d6/0.5 % H2O
[3] = Dynamic light scattering, H2O 5% EtOH; type: physicochemical; details: 5.56 mM, 298 K, after annealing
Text: The size and stability of those self-associated structures present were confirmed through a combination of dynamic light scattering (DLS) and zeta potential measurements respectively (Table 2). […] Therefore, the presence of the alkyl/aromatic R-groups within the amino acid appended SSA are confirmed to increase higher order self-associated aggregate stability.
Table S9 - The peak maxima and polydispersity indices obtained for 1, 3, 5, 7, 9, and 1:1 enantiomeric mixtures of 3 + 5 and 7 + 9 obtained at 5.56 mM in H2O/5 % EtOH. An annealing process was applied in which the samples were heated to approximately 313 K before being cooled down to a measurement temperature of 298 K. The errors given are the standard error of the average.
Compound Repeat Peak maxima (nm) Polydispersity index

E. Faecalis NCTC 775 = assay: MIC assay; type: cell-based, Enterococcus faecalis; details: for MIC: Enterococcus faecalis, NCTC775, lowest concentration with no visible growth
Experimental: as §2
(§8) Preparation of bacterial plates : Sterile TSB agar plates were streaked using the desired bacteria [Staphylococcus aureus (9144, 13616, USA 300 and 1199B ), Enterococcus faecalis (NCTC 775 and 12201 ) and Enterococcus faecium (NCTC 12204)] and incubated at 37 °C […]
as §4, §5
(§9) . The compound solution (200
(§10) […]. The bacterial suspension (100 µL) was dispensed into each well under sterile conditions. The plates were sealed using parafilm and incubated at 37 °C for 20 hours, after which the OD 600 was measured.

S. aureus 1199B = assay: microbe, parasite or virus in culture; type: cell-based, Staphylococcus aureus; details: for MIC (mM) S. aureus 1199B: lowest concentration with no visible growth; for MIC 1199B: total molecular concentration; for MIC: Staphylococcus aureus, 1199B
Experimental: as §1, §2, §3, §4, §5, §6, §7

[4] = tested on: Galleria mellonella larvae; assay: G. mellonella toxicity assay; type: in vivo; details: out of 10, 10 µL of 5 mM in H2O/EtOH 19:1, 37 °C
Experimental: Finally, we gauged the toxicity of SSAs 1, 3, 5, 7, and 9 as either homogenous solutions or heterogenous (1 : 1) enantiomeric mixtures towards multicellular organisms which have an intrinsic immune system.[66] Here, Galleria mellonella larvae were injected with 10 µL of SSA (5 mM) in a distilled H2O/EtOH 19 : 1 solution and then incubated at 37 °C for a maximum of five days and the number of surviving larvae recorded each day. […]. […]
G. mellonella treatment assay: G. mellonella larvae were purchased from Livefood UK Ltd.
(Rooks Bridge, UK) and maintained on wood chips in the dark at 15 °C until use. Galleria
larvae were injected with 10 µL of compound in H2O/5 % EtOH, incubated at 37 °C for 5 days
and the deaths counted. Groups of 10 Galleria were injected per compound. […]

E. Faecalis NCTC 12201 = assay: MIC assay; type: cell-based; details: Enterococcus faecalis, NCTC12201; lowest concentration with no visible growth
Experimental: as §2, §8, §4, §5, §9, §10

E. Faecium NCTC 12204 = assay: MIC assay; type: cell-based; details: Enterococcus faecium, NCTC12204; lowest concentration with no visible growth
Experimental: as §2, §8, §4, §5, §9, §10

S. aureus USA300 = assay: MIC assay; type: cell-based; details: Staphylococcus aureus
Experimental: as §1, §2, §3, §4, §5, §6, §7

[5] = Quantitative 1H NMR, DMSO-d6 1% DCM (self-association); type: physicochemical; details: 112 mM, 298 K, proportion NMR silent
Text: Initially, quantitative (Q) ^1H NMR spectroscopy experiments were undertaken in DMSO-d6 1% DCM, using the DCM as an internal standard to identify the presence of either low or high order SSA self-associated aggregates. Here, low-order SSA self-associated aggregates are defined as those directly observable using traditional solution state ^1H NMR spectroscopy such as the formation of hydrogen bonded anionic dimers. To determine the presence of low or high-order SSA aggregates, signals corresponding to the anionic or cationic component of the SSA are integrated against those of the internal DCM standard.

[6] = lowest concentration with no visible growth, listed as 5
[7] = Staphylococcus aureus, ATCC9144, 15 h, total molecular concentration, after 900 min, read-out: MIC ATCC 9144
[8] = Staphylococcus aureus, ATCC9144, lowest concentration with no visible growth, read-out: MIC (mM) S. aureus 9144
[9] = Staphylococcus aureus, NCTC13616, 15 h, total molecular concentration, after 900 min, read-out: MIC NCTC 13616
[10] = Staphylococcus aureus, NCTC13616, lowest concentration with no visible growth, read-out: MIC (mM) S. aureus 13616
[11] = USA300, 15 h, total molecular concentration, after 900 min, read-out: MIC USA300
[12] = USA300, lowest concentration with no visible growth, read-out: MIC (mM) S. aureus USA 300
[13] = 15 h, read-out: MIC 1199B, total molecular concentration, after 900 min
[14] = read-out: MIC (mM) S. aureus 1199B, lowest concentration with no visible growth

| SMILES | Galleria moth larvae survived Day 2 [4] | MIC (S. aureus ATCC 9144; [7]) [mM] | MIC (S. aureus ATCC 9144; [8]) [mM] | MIC (S. aureus NCTC 13616; [9]) [mM] | MIC (S. aureus NCTC 13616; [10]) [mM] | MIC (E. Faecalis NCTC 12201) [mM] | MIC (E. Faecium NCTC 12204) [mM] | MIC (S. aureus USA300; [11]) [mM] | MIC (S. aureus USA300; [12]) [mM] | Surface tension (mN m^-1) [1] | CAC [1] [mM] | MIC (E. Faecalis NCTC 775) [mM] | MIC (S. aureus 1199B; [13]) [mM] | MIC (S. aureus 1199B; [14]) [mM] | Q NMR (%) SSA anion [5] [%] | Q NMR (%) SSA cation [5] [%] | Galleria moth larvae survived Day 1 [4] | Galleria moth larvae survived Day 3 [4] | Galleria moth larvae survived Day 4 [4] | Galleria moth larvae survived Day 5 [4] | other results |
| --- | --- | --- | --- | --- | --- | --- | --- | --- | --- | --- | --- | --- | --- | --- | --- | --- | --- | --- | --- | --- | --- |
| CC(C)CC(NC(=O)Nc1ccc(C(F)(F)F)cc1)C(=O)O (stereo not shown) [SSA 5] | 9 |  |  |  |  |  |  |  |  |  |  |  |  |  |  |  |  |  |  |  | MIC (mM) S. aureus 9144 (S. aureus ATCC 9144; [6]): 0.174 mM (≈ 55.4 µg/mL); MIC (S. aureus ATCC 9144; total molecular concentration, after 900 min, listed as 5, read-out: MIC ATCC 9144): 0.174 mM (≈ 55.4 µg/mL); MIC (mM) S. aureus 13616 (S. aureus NCTC 13616; lowest concentration with no visible growth): 0.087 mM (≈ 27.7 µg/mL); MIC (S. aureus NCTC 13616; total molecular concentration, after 900 min, read-out: MIC NCTC 13616): 0.087 mM (≈ 27.7 µg/mL); Surface tension (mN m^-1) ([1]; listed as 5): 40.92 mN m^−1 and 40.92 ^c mN m^−1; dH (nm), hydrodynamic diameter, anionic component ([2]; listed as 5): 1.70 nm and 1.7 nm; Hydrodynamic diameter (nm) Cationic component ([2]; listed as 5): 1.28 nm; dH (nm), DLS intensity distribution peak maxima ([3]; listed as 5): 174.05 (± 13.00) nm and 174 nm; MIC (mM) E. Faecalis NCTC 775 (E. Faecalis NCTC 775; [6]): 2.780 mM (≈ 885 µg/mL); MIC (mM) S. aureus 1199B (S. aureus 1199B; listed as 5): 2.780 mM (≈ 885 µg/mL); MIC 1199B (S. aureus 1199B; after 900 min, listed as 5): 2780 µM (≈ 885 µg/mL); Galleria moth larvae survived Day 1 ([4]; listed as 5): 10; Galleria moth larvae survived Day 3 ([4]; listed as 5): 8; Galleria moth larvae survived Day 4 ([4]; listed as 5): 8; Galleria moth larvae survived Day 5 ([4]; listed as 5): 8 |
| O=C(Nc1ccc(C(F)(F)F)cc1)N[C@@H](Cc1ccccc1)C(=O)O [SSA 7] | 4 | 0.087 (≈ 30.7 µg/mL) | 0.087 (≈ 30.7 µg/mL) | 0.087 (≈ 30.7 µg/mL) | 0.087 (≈ 30.7 µg/mL) | > 2.78 | > 2.78 | 0.087 (≈ 30.7 µg/mL) | 0.087 (≈ 30.7 µg/mL) | 39.83 mN m^−1 and 39.83 ^c mN m^−1 | > 5.56 | > 2.78 | 0.174 (≈ 61.3 µg/mL) | 0.174 (≈ 61.3 µg/mL) | 0 | 0 | 10 | 4 | 4 | 4 | dH (nm), hydrodynamic diameter, anionic component [2]: 1.70 nm and 1.7 nm; Hydrodynamic diameter (nm) Cationic component [2]: 1.27 nm; dH (nm), DLS intensity distribution peak maxima [3]: 166.62 (± 19.14) nm and 167 nm |
| O=C(Nc1ccc(C(F)(F)F)cc1)N[C@H](Cc1ccccc1)C(=O)O [SSA 9] | 9 | 0.174 (≈ 61.3 µg/mL) | 0.174 (≈ 61.3 µg/mL) | 0.087 (≈ 30.7 µg/mL) | 0.087 (≈ 30.7 µg/mL) | > 2.78 | > 2.78 | 0.087 (≈ 30.7 µg/mL) | 0.087 (≈ 30.7 µg/mL) | 39.64 mN m^−1 and 39.64 ^c mN m^−1 | > 5.56 | 2.78 (≈ 979 µg/mL) | 0.174 (≈ 61.3 µg/mL) | 0.174 (≈ 61.3 µg/mL) | 0 | 0 | 9 | 9 | 7 | 5 | dH (nm), hydrodynamic diameter, anionic component [2]: 1.67 nm and 1.7 nm; Hydrodynamic diameter (nm) Cationic component [2]: 1.24 nm; dH (nm), DLS intensity distribution peak maxima [3]: 180.99 (± 53.12) nm and 181 nm |
| O=C(O)CNC(=O)Nc1ccc(C(F)(F)F)cc1 [SSA 1] | 9 | 1.39 (≈ 364 µg/mL) | 1.39 (≈ 364 µg/mL) | > 2.78 | > 2.78 | > 2.78 | > 2.78 | > 2.78 | > 2.78 |  |  | > 2.78 | > 2.78 | > 2.78 |  |  | 10 | 8 | 6 | 6 |  |
| CC(C)CC(NC(=O)Nc1ccc(C(F)(F)F)cc1)C(=O)O (stereo not shown) [SSA 3] | 9 | 0.087 (≈ 27.7 µg/mL) | 0.087 (≈ 27.7 µg/mL) | 0.087 (≈ 27.7 µg/mL) | 0.087 (≈ 27.7 µg/mL) | > 2.78 | > 2.78 | > 2.78 |  |  | > 5.56 | > 2.78 |  |  | 0 | 0 |  |  |  |  | Surface tension (mN m^-1) ([1]; listed as 3): 40.92 mN m^−1 and 40.92 ^c mN m^−1; dH (nm), hydrodynamic diameter, anionic component ([2]; listed as 3): 1.66 nm and 1.7 nm; Hydrodynamic diameter (nm) Cationic component ([2]; listed as 3): 1.26 nm; dH (nm), DLS intensity distribution peak maxima ([3]; listed as 3): 265.65 (± 19.29) nm and 266 nm; MIC (mM) S. aureus 1199B (S. aureus 1199B; listed as 3): 0.087 mM (≈ 27.7 µg/mL); MIC 1199B (S. aureus 1199B; after 900 min, listed as 3): 87 µM (≈ 27.7 µg/mL); Galleria moth larvae survived Day 1 ([4]; listed as 3): 9; Galleria moth larvae survived Day 3 ([4]; listed as 3): 9; Galleria moth larvae survived Day 4 ([4]; listed as 3): 6; Galleria moth larvae survived Day 5 ([4]; listed as 3): 5 |
